Values after ≈ are worked out from the molar mass of the structure shown.
Tests used:
[1] = concentration in blood after subcutaneous injection (serum concentration by HPLC); format: in vivo; details: sc, ICR mice, male, 0.5 mg per mouse subcutaneous; for Cmax: 4 weeks old, serum by HPLC, read-out: Maximum concentration in blood; for half-life / AUC: serum, Gauss-Newton method; for half-life: read-out: Half-life period (converted); for AUC: sampling 5 minutes to 2 hours, read-out: AUC (area under the plasma concentration-time curve)
Experimental: This test example illustrates that the following typical examples of the compound of the present invention can give and maintain their concentrations in blood at high levels after subcutaneous injection. Test Compounds:
The test was carried out in the following manner. Using five male mice of ICR line (4 weeks old, 1 individual/group for blood collection), 0.5 mg of each test compound dissolved in 0.2 ml of sterile water for injection use was administered to each mouse by subcutaneous injection. Blood collection was carried out after 5 minutes, 15 minutes, 30 minutes, 1 hour and 2 hours after the administration. Each of the thus collected blood samples was subjected to ordinary post-treatment, and then serum concentration of the cephem compound was measured by making use of HPLC. Half-life period and AUC (area under the plasma concentration-time curve) as pharmacokinetic parameters were calculated in accordance with the Gauss-Newton method.

M. morganii 1510/S-l = assay: minimum growth inhibitory concentration, ordinary serial dilution technique; format: cell-based; details: Morganella morganii, 1510/SL, 10^6 CFU/ml, 35° C., 18 to 20 hours
Experimental: (§1) In this test example, antibacterial activities of the following typical examples of the compound (I) of the present invention upon various bacterial species are illustrated by showing their minimum growth inhibitory concentrations measured by the ordinary serial dilution technique. The measurement was made by inoculating 10^6 CFU/ml of each test strain on a Sensitivity Plate Medium N (Nissui Pharmaceutical Co., Ltd.) and culturing the inoculated cells at 35° C. for 18 to 20 hours.

[2] = system: Sta. epidermidis ATCC 14990; assay: as above; format: cell-based; details: Staphylococcus epidermidis, ATCC14990, 10^6 CFU/ml, 35° C., 18 to 20 hours
Experimental: as §1

Sta. aureus 209P JC-1 = assay: as above; format: cell-based; details: Staphylococcus aureus, 10^6 CFU/ml, Sensitivity Plate Medium N, 35° C., 18 to 20 hours
Experimental: as §1

P. vulgaris GN 76 = assay: as above; format: cell-based; details: Proteus vulgaris, GN76, 10^6 CFU/ml, 35° C., 18 to 20 hours
Experimental: as §1

K. pneumoniae PCI 602 = assay: as above; format: cell-based; details: Klebsiella pneumoniae, PCI602, 10^6 CFU/ml, 35° C., 18 to 20 hours
Experimental: as §1

E. coli NIHJ JC-2 = assay: as above; format: cell-based; details: Escherichia coli, NIHJJC2, 10^6 CFU/ml, 35° C., 18 to 20 hours
Experimental: as §1

[3] = acute toxicity (LD50) i.v. in mice; details: mouse, in vivo, iv
[4] = system: Sta. aureus M 126 (methicillin-resistant); assay: minimum growth inhibitory concentration, ordinary serial dilution technique; format: cell-based; details: Staphylococcus aureus, 10^6 CFU/ml, 35° C., 18 to 20 hours
Experimental: as §1, with “hours. Test Compounds:” for “hours.”
(§2) Note: (*), methicillinresistant Staphylococcus aureus

[5] = system: Sta. aureus M 133 (methicillin-resistant); assay: as above; format: cell-based; details: Staphylococcus aureus, 10^6 CFU/ml, 35° C., 18 to 20 hours
Experimental: as §1, with “hours. Test Compounds:” for “hours.”
as §2

SMILES | Cmax [1] [µg/mL] | half-life [1] [h] | AUC [1] [µg·h/mL] | MIC (M. morganii 1510/S-l) [µg/mL] | MIC [2] [µg/mL] | MIC (Sta. aureus 209P JC-1) [µg/mL] | MIC (P. vulgaris GN 76) [µg/mL] | MIC (K. pneumoniae PCI 602) [µg/mL] | MIC (E. coli NIHJ JC-2) [µg/mL] | LD50 [3] [mg/kg] | MIC [4] [µg/mL] | MIC [5] [µg/mL]
CO/N=C(\C(=O)NC1C(=O)N2C(C(=O)O)=C(Sc3nc4ccccc4s3)CS[C@H]12)c1nsc(N)n1 (some centres unmarked) [Compound A, 7-{(Z)-2-(5-amino-1,2,4-thiadiazol-3-yl)-2-methoxyiminoacetamido}-3-(benzothiazol-2-yl)thio-3-cephem-4-carboxylic acid] | 126 | 1.8 | 343 | 1.56 (≈ 2.84 µM) | 0.39 (≈ 0.71 µM) | 0.39 (≈ 0.71 µM) | 3.13 (≈ 5.69 µM) | 3.13 (≈ 5.69 µM) | 3.13 (≈ 5.69 µM) | 1000 to 1500 | 3.13 (≈ 5.69 µM) | 1.56 (≈ 2.84 µM)
CO/N=C(\C(=O)NC1C(=O)N2C(C(=O)O)=C(Sc3nc4cccnc4s3)CS[C@H]12)c1nsc(N)n1 (some centres unmarked) [Compound B, 7-{(Z)-2-(5-amino-1,2,4-thiadiazol-3-yl)-2-methoxyiminoacetamido}-3-(thiazolo[5,4-b]pyridin-2-yl)thio-3-cephem-4-carboxylic acid] | 110 | 1.3 | 230 | 50 (≈ 90.8 µM) | 0.39 (≈ 0.708 µM) | 0.78 (≈ 1.42 µM) | 12.5 (≈ 22.7 µM) | 3.13 (≈ 5.68 µM) | 3.13 (≈ 5.68 µM) |  | 12.5 (≈ 22.7 µM) | 3.13 (≈ 5.68 µM)
CO/N=C(\C(=O)NC1C(=O)N2C(C(=O)O)=C(Sc3nc4ccccc4o3)CSC12)c1csc(N)n1 (centres unmarked) [Compound C, 7-{(Z)-2-(2-aminothiazol-4-yl)-2-methoxy-iminoacetamido}-3-(benzoxazol-2-yl)thio-3-cephem-4-carboxylic acid] | 141 | 2.1 | 442 |  |  |  |  |  |  |  |  | 
